Results on two compounds are retold here after PMC5975898, “Cationic porphyrins are tunable gatekeepers of the 20S proteasome” (Chemical Science, 2015).

Experiment [1] concerns the target T1, human 20S proteasome T-L activity.
T1 construct: purchased Boston Biochem
Put plainly: 20S proteasome T-L activity inhibition assay (Ac-Arg-Leu-Arg-AMC). The class given is biochemical. The method, then: (§1) Purified human 20S proteasome and the fluorogenic substrates Suc-LLVY-AMC, Z-Leu-Leu-Glu-AMC, and Ac-Arg-Leu-Arg-AMC used to test the ChT-L, PGPH-L, and T-L activity, respectively, were purchased from Boston Biochem (Cambridge, MA, USA).
(§2) Proteasome activity assays were performed in vitro by mixing 20S proteasome (2 nM) with 100 μM of the proper fluorogenic peptide in the assay buffer (i.e., 25 mM HEPES, 0.5 mM EDTA, pH 7.6) in a 384 multiwell black plate. […] A minimum of three replicates were performed for each data point. Data are expressed as normalized percentages of residual activity considering the slope of the control (fluorogenic peptide/proteasome in the absence of inhibitors) as 100% of proteasome activity. Dose–response plots of the residual proteasome activity in the presence of increasing concentration of inhibitor provides a quantitative estimate of its potency. […] The estimation of the IC50 is based on a nonlinear fit with the equation:2 [drawing 2]
(§3) The IC50 values and their standard errors were deduced from the fitting. […] The resulting catalytic parameter are Km, corresponding to the apparent affinity constant (or Michaelis–Menten constant) of substrate for the free enzyme (to form the ES complex), and kcat, corresponding to the velocity of the rate-limiting step during the enzymatic activity. […] The mechanism of inhibition of the 20S proteasome ChT-L activity by the inhibitors was analyzed by modified double-reciprocal plot, as from the following equations for the different inhibitory mechanisms:4a [drawing 4]

Experiment [2] deals with T2, human 20S proteasome ChT-L activity.
T2 construct: purchased Boston Biochem
Put plainly: Steady-state enzyme kinetics of ChT-L inhibition (Lineweaver-Burk plot). In kind it is biochemical. The source says: Analysis of enzyme kinetics may provide valuable insights in the understanding of inhibition mechanisms. To this aim, we have addressed the inhibition mechanism of the title compound H2T4 by determining the ChT-L activity of the CP at different concentrations of substrate and inhibitor. Since H2T4 inhibits all the three proteolytic functions of the CP with a similar potency, one can assume that the inhibition mechanism is similar for all enzymatic activities.
Fig. 6 Double reciprocal Lineweaver–Burk plot of substrate enzymatic 20S processing in the absence of inhibitor (○) and in the presence of 0.5 μM (×), 1 μM (+), 3 μM (*), 10 μM (⊗) and 20 μM inhibitor (⊕) for various concentrations of the substrate Suc-LLVY-AMC (from 6 to 100 μM).
The IC50 values and their standard errors were deduced from the fitting. Data relative to CP activities at different substrate/inhibitor concentrations have been analyzed by a double reciprocal Lineweaver–Burk plot, according to the following equation:3 [drawing 3] where [E0] is the enzyme concentration, ν is the observed velocity (expressed as moles of substrate cleaved per time interval unit) and [S] is the substrate concentration. […] The mechanism of inhibition of the 20S proteasome ChT-L activity by the inhibitors was analyzed by modified double-reciprocal plot, as from the following equations for the different inhibitory mechanisms:4a [drawing 4] […]

Experiment [3] deals with T2, human 20S proteasome ChT-L activity. As to the kind of experiment: 20S proteasome ChT-L activity inhibition assay (Suc-LLVY-AMC). In kind it is biochemical. The method, then: as §1, §2, §3
Experiment [4] concerns T2, human 20S proteasome ChT-L activity. Put plainly: Pre-steady-state kinetics of ChT-L inhibition (time course of fluorescent product, Runge-Kutta simulation). The class given is biochemical. The following applies: 2 nM 20S, 100 μM Suc-LLVY-AMC; constrained to KI = k–I/k+I. The method, then:
The kinetic parameters of H2T4 binding to the CP have also been determined as a function of time (as described in Experimental). Fig. 7 reports the time evolution of the fluorescent product obtained by mixing at t = 0 both the substrate (100 μM final concentration) and H2T4 at different concentrations, as reported in the figure legend; the fluorescent signal was transformed into molar concentrations of fluorescent product through a calibration curve resulting from the complete processing of known concentration of substrate. […]
The interaction of H2T4 with 20S proteasome has been also investigated from the pre-steady-state kinetic standpoint. Briefly, these assays were performed without incubation time, by direct addition of different concentrations of H2T4 in samples where the Ch-L activity was already being monitored. The extent and the rate of inhibition were determined by following the time-dependent fluorescent signal of the cleaved substrate for 25 additional minutes. Data have been analyzed according to a second-order Runge–Kutta simulation procedure based on a simple competitive inhibition mechanism, such as in Scheme 1.
The time evolution of each species reported in Scheme 1 was calculated at discrete time intervals dt. […]

For experiment [5], the target named is T3, human 20S proteasome PGPH-L activity.
T3 construct: purchased Boston Biochem
Put plainly: 20S proteasome PGPH-L activity inhibition assay (Z-Leu-Leu-Glu-AMC). The class given is biochemical. Here is the method: as §1, §2, §3

For experiment [6], the system named is T4, 20S proteasome.
T4 construct: purchased Boston Biochem
As to the kind of experiment: Stopped-flow UV spectroscopy of H2T4 binding to 20S proteasome. Further details: species or system human. The following applies: 421 nm, 37 °C. The source says:
In order to find a closer correlation between experimental observations and molecular modeling we have carried out a kinetic investigation of the interaction between H2T4 and 20S proteasome by stopped-flow. […] Data have been analyzed according to the following equation1 [drawing 1] where ΔODobs is the observed optical density change at a given time, r is the total number of exponentials during the reaction time course, ΔODi is the optical density change corresponding to the exponential i, ki is the rate constant associated to the exponential i, t is the time.
Fig. 11 Optical density changes at 421 nm for the mixing at 37 °C of 1 nM 20S proteasome with different concentrations of H2T4, namely 1 μM (curve a), 2 μM (curve b) and 5 μM (curve c). Continuous lines correspond to the non-linear least-squares fitting of data with two exponentials according to eqn (1), employing parameters reported in Table 1.
However, it is important to outline that kinetics reported in Fig. 11 are characterized by a multiphasic pattern with different patterns of concentration dependence of the rate constants. […] Therefore, on the basis of molecular modeling studies, these kinetic data can be accounted for by assuming that there is a first faster interaction with the N-terminal tails of the α subunits, characterized by k1, likely corresponding to the first encountering of the porphyrin with the α-subunits plane in a perpendicular geometry (Fig. 10A). […] The values ≈0 for the dissociation rate constants (Table 1) simply means that the rate is very slow and the interaction is very strong.

The mark [7] stands for this setting: read-out: IC50 T-L (Figure S1), figure inset, semi-log plot of residual CP activity.
Setting [8] is: read-out: IC50 best-fit value, T-L activity (Table S1), nonlinear fit of dose-response plot.
Where [9] appears, read: read-out: IC50 ChT-L (Figure S1), figure inset, semi-log plot of residual CP activity.
The mark [10] stands for this setting: read-out: IC50 best-fit value, ChT-L activity (Table S1), nonlinear fit of dose-response plot.
The mark [11] stands for this setting: read-out: IC50 PGPH-L (Figure S1), figure inset, semi-log plot of residual CP activity.
Setting [12] is: read-out: IC50 best-fit value, PGPH-L activity (Table S1), nonlinear fit of dose-response plot.

Read-outs that look alike come from different tables or passages of the source.

As to `C[n+]1ccc(-c2c3nc(c(-c4cc[n+](C)cc4)c4ccc([nH]4)c(-c4cc[n+](C)cc4)c4nc(c(-c5cc[n+](C)cc5)c5ccc2[nH]5)C=C4)C=C3)cc1` [H2T4, meso-tetrakis(4-N-methylpyridyl)-porphyrin], the IC50 – broadly, the concentration that inhibits the measured activity by half – worked out at 460 nM in experiment [1] (setting [7]); 466 nM in experiment [1] (setting [8]); 470 nM in experiment [3] (setting [9]); 469 nM in experiment [3] (setting [10]); 300 nM in experiment [5] (setting [11]); 301 nM in experiment [5] (setting [12]). Moreover, the inhibition mechanism result in experiment [2] (Lineweaver-Burk plot) is given as “competitive mechanism”. Besides, the Ki (usually a measure of affinity in units of concentration, obtained from inhibition or displacement) in experiment [2] (read-out: inhibitor affinity constant KI, Suc-LLVY-AMC 6 to 100 μM, fit with eqn (4a)) stood at 360 nM. For the same compound, the “k+I” value in experiment [4] is 1.3 × 10^4 M^–1 s^–1. Moreover, in experiment [4], the “k–I” value is 4.7 × 10^–3 s^–1. Moreover, in experiment [6] (1 nM 20S, 1-5 μM H2T4), the “off k1” value is “∼0 s^–1”. Further, in experiment [6] (1 nM 20S, 1-5 μM H2T4), the “off k2” value was “∼0 s^–1”. The “on k1” value in experiment [6] (1 nM 20S, 1-5 μM H2T4) is 5.65 (±0.74) × 10^4 M^–1 s^–1. Also, the “on k2” value in experiment [6] (1 nM 20S, 1-5 μM H2T4) is given as 1.28 (±0.31) × 10^4 M^–1 s^–1. Moreover, the k3 in experiment [6] (rate independent of porphyrin concentration) is given as 3.23 (±0.81) × 10^–3 s^–1.

Consider `C[n+]1cccc(-c2c3nc(c(-c4ccc[n+](C)c4)c4ccc([nH]4)c(-c4ccc[n+](C)c4)c4nc(c(-c5ccc[n+](C)c5)c5ccc2[nH]5)C=C4)C=C3)c1` [meta-H2T4, meso-tetra(3-N-metil-pyridyl) porphyrin], for which the half-maximal inhibitory concentration (IC50) in experiment [1] (setting [7]) came to 1160 nM; in experiment [1] (setting [8]), 1160 nM; in experiment [3] (setting [9]) it was 930 nM; in experiment [3] (setting [10]), 931 nM; in experiment [5] (setting [11]) it was 210 nM; in experiment [5] (setting [12]), 211 nM.
